Reference: patent publication US20200253922A1, “METHODS FOR NON-[…] ADMINISTRATION OF CANNABINOIDS USING SOFT MIST […]” (Molecular Infusions, LLC, priority 2019, published 2020)
Read-outs that look alike come from different tables or passages of the source.

Key:
[1] = Terpene solubility assessment in base formulation of 10% Saline, 20% Water, 70% Ethanol; assay type: physicochemical; details: for Visual Observation: mixed overnight at room temperature
Method: The base formulation was prepared in bulk and 15 g aliquots were transferred to 22 ml scintillation vials. Pure, botanically derived terpenes were purchased from commercial sources.

[2] = Fine particle fraction by Fast Screening Impactor, Respimat device, 28.3 L/min; assay type: physicochemical
Source text: An abbreviated impactor set-up, Copley Scientific's ‘Fast Screening Impactor’ (FSI), was used to determine the FPF within liquid aerosols (Mitchell et al. AAPS PharmSciTech. 2009;10(1):252-7). The FSI consisted of the universal induction port (UIP), course fraction collector (pre-separator and insert with a 5 μm diameter cut-off @ 28.3 L/min), and fine particle fraction collector consisting of a holder and glass fiber filter. The system was assembled along with a Copley LC5 pump. The flow rate was set by attaching a flow meter to the inlet of the induction port and adjusting the flow control valve on the LC5 vacuum pump until the flow rate through the system was 28.3 L/min +/−5%. Measurements were performed under ambient laboratory conditions (˜60% RH, 72° F.). The Respimat device was primed and attached to the UIP using a mouthpiece adapter. With the vacuum pump running, the device was actuated followed by a 30 second hold before turning off the vacuum pump. The Respimat device was re-primed and another dose was collected in the FSI. To determine the amount of cannabinoids deposited in each stage, the FSI was dismantled and each stage was extracted with 10 ml of methanol. Samples were diluted and HPLC performed to quantify the mass of cannabinoids deposited in the USP throat, coarse fraction collector, and fine particle fraction collector.

asthmatic patients = details: metered dose inhaler, cited from earlier work
subjects = details: 5 mg dose via pMDI; cited from earlier work
healthy volunteers = details: doses greater than 2 mg, PARI nebulizer, eight healthy volunteers, all patients; cited from earlier work
Volunteers = assay: User feedback on tolerability of Δ9-THC distillate in ethanol delivered via […]; assay type: in vivo, human; details: in 200 proof ethanol, RESPIMAT
Source text: Volunteers reported that 200 proof ethanol (placebo) delivered using the […]® device as non-irritating. It was observed that the cannabinoid, Δ9-THC in the ethanol solution, induced irritation that was dose dependent as shown in Table 1 below:
The irritation was caused by cannabinoid deposition at mucosal membranes in the throat and upper airways. The lung deposition profile is affected by multiple factor including FPF as well as user inhalation technique. For example, it has been shown that the timing of inhalation and actuation as well as the posture of the user's head can have an impact on lung deposition. It is also important to note that in vitro impactor studies commonly underestimate dose deposition in the throat and overestimate the dose deposited in the lungs (Wei et al. (2018), Journal of Aerosol Medicine and Pulmonary Drug Delivery 31(0): 1-14).

[3] = Solubility of Δ9-THC and CBD in a solution of ethanol and saline at room temperature
Method: FIG. 5 is a photograph of 2% w/w Δ9-THC and 2% w/w CBD in solutions of 10%, 20%, 30%, 40% and 50% (w/w) saline in ethanol. Δ9-THC and CBD were soluble in solutions of up to 30% and 40% (w/w) saline, respectively.
As shown in FIG. 5 the solubility of Δ9-THC and CBD in a solution of ethanol and saline was investigated. […] A 2% w/w solution of CBD was prepared at room temperature in solutions of 10%, 20%, 30%, 40%, or 50% (w/w) saline in ethanol. 2% w/w CBD was soluble at room temperature in ethanol solutions of up to 40% saline. In a separate experiment, the absolute solubility of Δ9-THC in ethanol solutions containing 30%w/w saline was determined to be ˜8%w/w (data not shown).

patients = details: aerosol formulation; cited from earlier work
[4] = acidic form; cited from earlier work

## CC12CCC(CC1)C(C)(C)O2 [Eucalyptol]
[1]; Target Concentration 0.06% w/w
  Visual Observation: Clear, colorless
[1]; Target Concentration 0.24% w/w
  Visual Observation: Hazy, not fully
[1]; Target Concentration […] w/w
  Visual Observation: Clear, colorless

## C=CC(=C)CCC=C(C)C [β-myrcene]
[1]; 0.06% w/w
  solubility at the lowest percentage tested: not soluble
[1]; Target Concentration 0.06% w/w
  Visual Observation: Hazy, not fully
[1]; Target Concentration 0.24% w/w
  Visual Observation: Hazy, not fully
[1]; Target Concentration […] w/w
  Visual Observation: Hazy, not fully

## C=CC(C)(O)CCC=C(C)C (stereo not shown) [Linalool]
[1]; Target Concentration 0.06% w/w
  Visual Observation: Clear, colorless
[1]; Target Concentration 0.24% w/w
  Visual Observation: Hazy, not fully
[1]; Target Concentration […] w/w
  Visual Observation: Clear, colorless

## CCCCCc1cc(O)c2c(c1)OC(C)(C)[C@@H]1CCC(C)=C[C@@H]21 [Δ9-THC, Delta-9-tetrahydrocannabinol]
[2]; dose 0.35 mg
  % dose in FPF: 76%
[2]; dose 0.6 mg
  % dose in FPF: 76%
[2]; dose 1 mg
  % dose in FPF: 77%
[2]; dose 2 mg
  % dose in FPF: 78%
Asthmatic patients; 0.2 mg
  tolerability of aerosol delivery to the lungs: tolerable
Asthmatic patients; doses higher than 0.2 mg
  tolerability of aerosol delivery to the lungs: irritating and induced coughing
subjects
  subjects with side effects including cough and/or chest discomfort: 3 out of 11
Healthy volunteers
  irritation reported after inhalation, compared to a placebo formulation: significant irritation of the throat and upper respiratory tract
Volunteers; dose 0.35 mg
  User experience: Most tolerable: Cough may occur, mild irritation of
Volunteers; dose 0.6 mg
  User experience: Harsh: Mild cough with mild throat/upper airway
Volunteers; dose 1 mg
  User experience: Harsh: Coughing with throat/upper airway irritation
Volunteers; dose 2 mg
  User experience: Extremely harsh: Coughing with throat/upper airway
[3]; 2% w/w, room temperature, 10-50% (w/w) saline in ethanol tested
  saline content of ethanol solution up to which 2% w/w is soluble: up to 30 % (w/w) saline
[3]; 40% and 50% (w/w) saline solutions
  observation of 2% w/w solution: form a separate liquid phase (oiling out)
[3]; ethanol solutions containing 30%w/w saline, data not shown
  absolute solubility: ~8 %w/w

## C=C(C)[C@@H]1CCC(C)=C[C@H]1c1c(O)cc(CCCCC)cc1O [CBD, Cannabidiol]
[3]; 50% (w/w) saline solution
  observation of 2% w/w solution: precipitate

## C=C1CC/C=C(\C)CC[C@@H]2[C@@H]1CC2(C)C [β-caryophyllene]
[1]; Target Concentration 0.06% w/w
  Visual Observation: Clear, colorless
[1]; Target Concentration 0.24% w/w
  Visual Observation: Hazy, not fully
[1]; Target Concentration […] w/w
  Visual Observation: Clear, colorless

## CCCCCc1cc(O)c2c(c1)OC(C)(C)C1CC=C(C)CC21 (stereo not shown) [Δ8-THC, delta-8-tetrahydrocannabinol]
patients
  cough reaction: causing patients to cough

## CC1=CCC(=C(C)C)CC1 [Terpinolene]
[1]; Target Concentration 0.06% w/w
  Visual Observation: Clear, colorless
[1]; Target Concentration 0.24% w/w
  Visual Observation: Hazy, not fully
[1]; Target Concentration […] w/w
  Visual Observation: Clear, colorless

## O=C1NS(=O)(=O)c2ccccc21 [saccharin]
[4]
  pKa: ~1.9
